The numbers were not newly measured in patent US9873661B2, “Small molecule malarial Aldolase-TRAP enhancers and glideosome inhibitors” (NEW YORK UNIVERSITY, priority 2011, dated 2018), which cites them from elsewhere.

The target of this series is T1, plant plasma membrane H+-ATPase (PMA) and 14-3-3 (Nicotiana tabacum, UniProt P93343).
T1 sequence (P93343 1-260): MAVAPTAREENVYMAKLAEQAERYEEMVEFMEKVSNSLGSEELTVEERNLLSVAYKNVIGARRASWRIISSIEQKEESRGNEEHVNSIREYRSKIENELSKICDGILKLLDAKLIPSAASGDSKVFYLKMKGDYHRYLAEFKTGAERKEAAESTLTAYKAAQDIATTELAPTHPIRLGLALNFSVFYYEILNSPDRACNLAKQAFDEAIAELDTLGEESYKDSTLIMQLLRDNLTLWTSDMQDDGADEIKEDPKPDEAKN

Take fusioccin: the “increase of binding affinity between PMA and 14-3-3” value is recorded as “approximately 90 fold”.
